The record followed here is US20030036524A1, “Method of sensitising endothelial cells to prodrugs” (priority 2000, published 2003).

SMILES strings stand for the structures.

This assay has as its system HUVEC cells. Description: Functional bio-assay: endothelial cell proliferation of Ad5C2B1-infected HUVEC cells treated with ifosfamide, crystal-violet cell number. In kind it is cell-based, human. As to conditions: day 8. As for the experimental part: To test the bioactivity of the CYP2B1 transgene, human umbilical vein […] (HUVEC) cells [Jaffe et al.; J. Clin. Invest.
HUVEC cells were infected with Ad5C2B1 on day 2 with concentrations ranging from 0 to 2×10^8 PFU/ml for 2 hours.
The cells were seeded at 40.000 cells/well at day 3 (some wells were not sub-cultured but saved for cell extracts and medium collection at day 4).
HUVEC cells were grown on gelatin-coated tissue culture dishes in medium 199 (Biowhitakker), supplemented with 10% (vol/vol) human serum, 10% (v/v) heat-inactivated newborn calf serum (Biowhitakker), 5 U/mL of heparin (Leo Pharma BV), […] of crude EC growth factor (TNO-PG, Leiden), 100 U/mL of penicillin, and […] of streptomycin (Biowhitakker). Cells were grown at 37° C. in a humid atmosphere with 5% (vol/vol) CO2.
Cell numbers were determined at day 8 using crystal-violet staining and optical density measurement.
To quantify the effect off viral infection and prodrug treatment the cells numbers were determined as described above.

On to `O=P1(NCCCl)OCCCN1CCCl` (stereo not drawn) [Ifosfamide, ifosfamide], for which the “Number of Cells” value runs as follows: (Virus 0 PFU/ml, Ifosfamide 0.0625 mM) 152000; (Virus 0 PFU/ml, Ifosfamide 0.125 mM) 151600; (Virus 0 PFU/ml, Ifosfamide 0.25 mM) 152500; (Virus 0 PFU/ml, Ifosfamide 0.50 mM) 116000; (Virus 1 × 10^8 PFU/ml, Ifosfamide 0.0625 mM) 80500; (Virus 1 × 10^8 PFU/ml, Ifosfamide 0.125 mM) 63600. Besides, the “Number of Cells” value was found to be 66000 (Virus 1 × 10^8 PFU/ml, Ifosfamide 0.25 mM); 38500 (Virus 1 × 10^8 PFU/ml, Ifosfamide 0.50 mM); 98000 (Virus 1.25 × 10^7 PFU/ml, Ifosfamide 0.0625 mM); 110000 (Virus 1.25 × 10^7 PFU/ml, Ifosfamide 0.125 mM); 102000 (Virus 1.25 × 10^7 PFU/ml, Ifosfamide 0.25 mM); 85000 (Virus 1.25 × 10^7 PFU/ml, Ifosfamide 0.50 mM). The “Number of Cells” value is, setting by setting: (Virus 2 × 10^8 PFU/ml, Ifosfamide 0.0625 mM) 60000; (Virus 2 × 10^8 PFU/ml, Ifosfamide 0.125 mM) 54000; (Virus 2 × 10^8 PFU/ml, Ifosfamide 0.25 mM) 53000; (Virus 2 × 10^8 PFU/ml, Ifosfamide 0.50 mM) 30000; (Virus 2.5 × 10^7 PFU/ml, Ifosfamide 0.0625 mM) 88000; (Virus 2.5 × 10^7 PFU/ml, Ifosfamide 0.125 mM) 85000. Moreover, the “Number of Cells” value (Virus 2.5 × 10^7 PFU/ml, Ifosfamide 0.25 mM) is 79200; the “Number of Cells” value (Virus 2.5 × 10^7 PFU/ml, Ifosfamide 0.50 mM) was 56000; the “Number of Cells” value (Virus 5 × 10^7 PFU/ml, Ifosfamide 0.0625 mM) was found to be 87000; the “Number of Cells” value (Virus 5 × 10^7 PFU/ml, Ifosfamide 0.125 mM) was 85000; the “Number of Cells” value (Virus 5 × 10^7 PFU/ml, Ifosfamide 0.25 mM) was found to be 75000; the “Number of Cells” value (Virus 5 × 10^7 PFU/ml, Ifosfamide 0.50 mM) is given as 55000.
